Test results published in patent publication US11008334B2, “Compositions and methods for treating cancer” (The Regents of the University of California, priority 2012, dated 2021).
Read-outs that look alike come from different tables or passages of the source.

Experiments:
K-RasG12C (1-169) [1] = target: T1, K-RasG12C (1-169) (Homo sapiens, UniProt P01116, G12C); assay: Disulfide library (tethering) screen, covalent modification by mass spectrometry; assay type: binding; details: 200 micM BME; read-out: Potency/ Labeling (EC50 at 200 micM BME) Tethering
T1 construct: Un-tagged recombinant K-Ras G12C (1-169) at 4 μM in Buffer A; hexahistidine (cleaved yes); made in house; host or cells: Escherichia coli BL21 (DE)

K-RasG12C (1-169) [2] = target: T1, K-RasG12C (1-169); assay: Mass spectrometric screen for extent of covalent labeling; assay type: binding; details: 10 micromolar
Experimental: Un-tagged recombinant K-Ras G12C (1-169) at 4 μM in Buffer A was reacted with inhibitors at 200 μM or 10 μM (2% DMSO final). At 2, 6, and 24 hrs, 10 μL aliquots were removed and the reactions were stopped by addition of 1 μL 2% formic acid. The extent of modification was determined by mass spectrometry.

G12C cell lines = assay: Proliferation of human lung cancer cell lines; assay type: cell-based; details: 24 hr treatment (0.5% FBS), 48 hr washout (10% FBS)
[3] = tested on: binding of RasGTP to Raf1-RBD; assay: Raf1-RBD pull-downs; details: after EDTA-catalyzed exchange

T1 sequence (P01116 1-169 isoform P01116-2 G12C): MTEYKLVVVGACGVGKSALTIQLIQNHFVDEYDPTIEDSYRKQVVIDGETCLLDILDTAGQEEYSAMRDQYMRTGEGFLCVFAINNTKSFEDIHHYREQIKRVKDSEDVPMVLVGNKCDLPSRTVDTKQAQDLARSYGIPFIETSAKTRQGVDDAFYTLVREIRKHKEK

Compound | EC50 (K-RasG12C (1-169) [1]) [µM] | percent covalent labeling at 10 µM (K-RasG12C (1-169) [2]; 6 h, 6 hrs, read-out: Percent reduction in activity of compound at 10 micromolar relative to control (no compound), 6 hrs) [%] | percent covalent labeling at 10 µM (K-RasG12C (1-169) [2]; 24 h, 24 hrs, read-out: Percent reduction in activity of compound at 10 micromolar relative to control (no compound), 24 hrs) [%] | sensitivity of proliferation of G12C cell lines (G12C cell lines) | binding of RasGTP to Raf1-RBD [3]
O=C(NCCS)C1CCN(C(=O)COc2ccc(Cl)cc2Cl)CC1 [JO-01-148] | 40 to 60 | – | – | – | –
C=CC(=O)N1CCN(C(=O)CNc2cc(I)c(Cl)cc2O)CC1 [Ras-083] | – | 20 to 40 | > 60 | significantly more sensitive | impairs binding of RasGTP to Raf1-RBD
